Earlier results as cited in patent US7611910B2, “Method for diagnosis of alzheimer's disease” (Intracell, LLC, priority 1998, dated 2009).

Conditions: patients treated with indomethacin

## COc1ccc2c(c1)c(CC(=O)O)c(C)n2C(=O)c1ccc(Cl)cc1 [indomethacin]
  progression of Alzheimer's disease: reduced progression
